From ChEMBL document CHEMBL3108768 (ACS Med Chem Lett, 2014)

Experiments:
[1] = (§1) Inhibition of STX (unknown origin)-induced toxicity in human HeLa cells assessed as protection against toxin-induced inhibition of protein biosynthesis by measuring incorporation of [14C]-leucine into cells preincubated for 1 hr followed by toxin challenge measured after 20 hrs by liquid scintillation counting analysis; assay type: cell-based
HeLa = test: as §1, with “into cells at 30 uM preincubated for” for “into cells preincubated for”, “counting analysis relative to control” for “counting analysis”; assay type: cell-based

| SMILES | EC50 [1] | fold change (FC) (HeLa) |
| --- | --- | --- |
| Cc1ccc(/C=N/c2ccccc2C(=O)Nc2ccccc2)s1 | 27000 nM | – |
| Cc1nc(-c2ccc(C3N(C)c4ccc(F)cc4C(=O)N3c3ccccc3)s2)cs1 (racemic) | 102 nM | – |
| Cc1nc(-c2ccc([C@H]3N(C)c4ccc(F)cc4C(=O)N3c3ccccc3)s2)cs1 | 54 nM | 357 |
| Cc1nc(-c2ccc([C@@H]3N(C)c4ccc(F)cc4C(=O)N3c3ccccc3)s2)cs1 | 2400 nM | 68 |
